Laboratory results published in patent US20210276967A1 (OSPEDALE SAN RAFFAELE S.R.L., priority 2018, published 2021).

Assay: Hepatocytes stability, human
Format: in vitro ADME
Conditions: data not shown
Method: Hepatic metabolism is often a major contributor to drug clearance from the body. Pooled cryopreserved human hepatocytes (commercially available for example from Bioreclamation IVT, LiverPool 20-donor Human Hepatocytes Product. No. X008000) are thawed and re-suspended in Hepatocyte Culture Medium (HCM) complete (commercially available, as for example from Lonza, HBM Hepatocytes Basal Medium Catalog No. CC-3199+HCM SingleQuots Catalog No. CC-4182). Compounds are diluted into the cell suspension (2.5 μl/2.5 mL, 1 million cells/mL) from 3 mM stock solution in DMSO to give a 3 μM concentration (0.1% DMSO). 150 μl (×2) of this mixture are taken and transferred into a 96-deep-well plate containing an equal volume of quenching solution (100% acetonitrile plus 0.1% formic acid) for time 0 incubation. […]
Stability is determined based on analysis of the disappearance of the compound as a function of incubation time, using area ratio (analyte peak area vs internal standard peak area). The elimination constant k is calculated by plotting mean disappearance values on a semi-logarithmic scale and fitting with a best fit linear regression. […] When the half-life could not be calculated, data are reported as: <0.5 or >4 hours. Intrinsic clearance given in μl/min/million cells is calculated using the Equation: Clint=KV/N. Where K=0.693/t1/2, V=incubation volume (ml) and N=number of hepatocytes/sample.

Nc1ccc(C(=O)Nc2cc(F)c(F)c(F)c2)cc1S(N)(=O)=O [Example E3, 4-amino-3-sulfamoyl-N-(3,4,5-trifluorophenyl)benzamide]
stability in human hepatocytes: stable
